Kd data for 13 molecules are collected here from ChEMBL document CHEMBL3991601, “The target landscape of clinical kinase drugs” (Science, 2017).

Calls of active or inactive are those of the source. For most assays here, no stated cut-off is given here; in the data, actives have a measured Kd and inactives only a lower limit.

For orientation: Kd means the equilibrium constant for the complex coming apart.

For assay [1], the target named is Tyrosine-protein kinase ABL2 (Homo sapiens, UniProt P42684).
Sequence of Tyrosine-protein kinase ABL2 (P42684 whole entry): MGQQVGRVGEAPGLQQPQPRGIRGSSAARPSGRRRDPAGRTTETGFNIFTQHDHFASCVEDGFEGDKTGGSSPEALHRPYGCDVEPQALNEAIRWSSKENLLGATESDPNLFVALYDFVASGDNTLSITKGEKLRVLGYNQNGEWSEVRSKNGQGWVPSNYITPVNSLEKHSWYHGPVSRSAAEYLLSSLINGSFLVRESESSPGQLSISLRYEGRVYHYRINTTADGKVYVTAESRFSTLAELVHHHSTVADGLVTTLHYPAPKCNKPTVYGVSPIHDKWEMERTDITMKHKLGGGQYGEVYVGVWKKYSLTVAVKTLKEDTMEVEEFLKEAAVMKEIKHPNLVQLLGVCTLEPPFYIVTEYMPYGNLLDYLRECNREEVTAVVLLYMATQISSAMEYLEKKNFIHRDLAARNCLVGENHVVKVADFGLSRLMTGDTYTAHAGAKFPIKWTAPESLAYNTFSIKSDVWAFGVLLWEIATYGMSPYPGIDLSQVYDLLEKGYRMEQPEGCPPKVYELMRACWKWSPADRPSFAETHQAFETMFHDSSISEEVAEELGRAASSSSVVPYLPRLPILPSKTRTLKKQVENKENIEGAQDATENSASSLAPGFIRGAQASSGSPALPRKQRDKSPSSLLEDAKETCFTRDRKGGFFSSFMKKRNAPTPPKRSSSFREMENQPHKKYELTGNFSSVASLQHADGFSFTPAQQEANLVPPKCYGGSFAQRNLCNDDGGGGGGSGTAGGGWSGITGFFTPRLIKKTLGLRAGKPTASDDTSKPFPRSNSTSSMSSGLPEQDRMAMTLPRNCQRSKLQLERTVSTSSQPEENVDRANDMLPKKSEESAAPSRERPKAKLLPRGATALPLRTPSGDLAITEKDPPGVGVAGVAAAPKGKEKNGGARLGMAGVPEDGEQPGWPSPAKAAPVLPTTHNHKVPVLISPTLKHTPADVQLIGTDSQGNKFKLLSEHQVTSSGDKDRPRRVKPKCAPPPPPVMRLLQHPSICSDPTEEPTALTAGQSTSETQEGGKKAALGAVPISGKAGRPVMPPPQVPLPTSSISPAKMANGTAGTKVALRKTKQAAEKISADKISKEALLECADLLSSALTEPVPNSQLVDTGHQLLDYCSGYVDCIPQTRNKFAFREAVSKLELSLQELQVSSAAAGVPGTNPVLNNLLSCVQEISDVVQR
The next assay concerns the target Actin-related protein 2 (Homo sapiens, UniProt P61160).
The target in the next assay is T1, Ephrin type-B receptor 6 (Homo sapiens, UniProt O15197).
T1 sequence (O15197 whole entry): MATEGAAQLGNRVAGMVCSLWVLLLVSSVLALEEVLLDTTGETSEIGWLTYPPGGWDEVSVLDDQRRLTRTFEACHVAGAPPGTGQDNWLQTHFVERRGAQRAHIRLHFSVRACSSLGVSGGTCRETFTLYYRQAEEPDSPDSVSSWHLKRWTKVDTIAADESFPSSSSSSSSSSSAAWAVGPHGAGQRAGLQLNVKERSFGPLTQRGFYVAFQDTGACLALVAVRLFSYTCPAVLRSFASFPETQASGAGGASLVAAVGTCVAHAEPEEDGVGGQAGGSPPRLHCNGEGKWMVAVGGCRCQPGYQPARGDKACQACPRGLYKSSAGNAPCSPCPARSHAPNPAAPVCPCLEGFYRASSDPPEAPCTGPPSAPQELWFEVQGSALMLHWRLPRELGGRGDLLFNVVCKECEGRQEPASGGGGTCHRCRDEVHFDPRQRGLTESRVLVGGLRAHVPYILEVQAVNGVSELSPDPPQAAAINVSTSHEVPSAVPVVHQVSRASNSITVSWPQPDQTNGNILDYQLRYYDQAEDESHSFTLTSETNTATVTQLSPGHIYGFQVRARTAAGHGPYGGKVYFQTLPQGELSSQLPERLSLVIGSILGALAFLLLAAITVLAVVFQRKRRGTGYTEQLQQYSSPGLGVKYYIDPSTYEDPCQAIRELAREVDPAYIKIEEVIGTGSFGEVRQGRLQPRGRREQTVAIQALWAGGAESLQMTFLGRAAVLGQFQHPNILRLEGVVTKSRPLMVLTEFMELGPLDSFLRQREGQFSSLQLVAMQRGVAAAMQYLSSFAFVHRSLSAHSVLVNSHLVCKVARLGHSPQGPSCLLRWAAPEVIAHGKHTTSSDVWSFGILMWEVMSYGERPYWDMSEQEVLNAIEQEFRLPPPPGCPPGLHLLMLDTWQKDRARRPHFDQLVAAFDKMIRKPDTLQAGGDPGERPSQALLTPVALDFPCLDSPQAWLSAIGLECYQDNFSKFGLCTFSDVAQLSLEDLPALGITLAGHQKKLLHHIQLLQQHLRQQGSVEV

Another assay deals with LIM domain kinase 2 (Homo sapiens, UniProt P53671).
Sequence of LIM domain kinase 2 (P53671 whole entry, the tested form may be a part): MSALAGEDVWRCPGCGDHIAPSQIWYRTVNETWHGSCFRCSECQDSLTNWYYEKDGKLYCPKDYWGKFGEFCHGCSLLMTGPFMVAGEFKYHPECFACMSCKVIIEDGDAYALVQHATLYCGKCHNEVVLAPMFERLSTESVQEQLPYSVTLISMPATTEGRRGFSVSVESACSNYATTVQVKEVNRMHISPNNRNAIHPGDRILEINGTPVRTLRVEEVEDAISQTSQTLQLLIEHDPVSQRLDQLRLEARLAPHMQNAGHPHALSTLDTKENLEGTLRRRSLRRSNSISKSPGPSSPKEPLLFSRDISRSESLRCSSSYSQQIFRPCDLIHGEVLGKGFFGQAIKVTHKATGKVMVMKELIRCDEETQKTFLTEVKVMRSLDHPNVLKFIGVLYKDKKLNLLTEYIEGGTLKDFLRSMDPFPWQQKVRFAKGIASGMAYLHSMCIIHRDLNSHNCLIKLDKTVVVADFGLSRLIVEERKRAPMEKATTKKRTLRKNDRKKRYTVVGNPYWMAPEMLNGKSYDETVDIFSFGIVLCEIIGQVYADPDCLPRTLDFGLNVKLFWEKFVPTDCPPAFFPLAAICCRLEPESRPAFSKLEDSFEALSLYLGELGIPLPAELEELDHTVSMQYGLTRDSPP
Assay [2] deals with T2, Dual specificity mitogen-activated protein kinase kinase 3 (Homo sapiens, UniProt P46734).
T2 sequence (P46734 whole entry): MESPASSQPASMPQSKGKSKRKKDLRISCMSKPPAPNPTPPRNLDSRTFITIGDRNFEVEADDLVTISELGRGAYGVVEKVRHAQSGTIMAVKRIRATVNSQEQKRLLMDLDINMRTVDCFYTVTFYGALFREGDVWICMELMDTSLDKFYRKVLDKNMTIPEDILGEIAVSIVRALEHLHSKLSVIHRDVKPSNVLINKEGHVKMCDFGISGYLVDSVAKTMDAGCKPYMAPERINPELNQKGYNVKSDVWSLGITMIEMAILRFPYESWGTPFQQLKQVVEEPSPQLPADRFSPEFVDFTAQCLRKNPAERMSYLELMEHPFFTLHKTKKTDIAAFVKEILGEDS

The target in assay [3] is T3, Dual specificity mitogen-activated protein kinase kinase 5 (Homo sapiens, UniProt Q13163).
T3 sequence (Q13163 whole entry): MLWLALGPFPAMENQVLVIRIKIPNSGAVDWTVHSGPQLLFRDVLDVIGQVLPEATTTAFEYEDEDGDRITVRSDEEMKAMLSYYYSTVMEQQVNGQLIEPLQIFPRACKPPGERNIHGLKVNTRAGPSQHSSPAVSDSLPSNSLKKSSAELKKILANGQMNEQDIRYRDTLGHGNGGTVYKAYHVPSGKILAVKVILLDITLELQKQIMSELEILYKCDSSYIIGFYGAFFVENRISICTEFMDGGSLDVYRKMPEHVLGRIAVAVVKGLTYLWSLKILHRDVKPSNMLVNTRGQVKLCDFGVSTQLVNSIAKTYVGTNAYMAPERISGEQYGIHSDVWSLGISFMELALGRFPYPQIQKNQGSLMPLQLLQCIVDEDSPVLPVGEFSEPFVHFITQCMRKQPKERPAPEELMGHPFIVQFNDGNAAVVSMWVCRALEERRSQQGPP

In assay [4] the target is T4, Exosome RNA helicase MTR4 (Homo sapiens, UniProt P42285).
T4 sequence (P42285 whole entry): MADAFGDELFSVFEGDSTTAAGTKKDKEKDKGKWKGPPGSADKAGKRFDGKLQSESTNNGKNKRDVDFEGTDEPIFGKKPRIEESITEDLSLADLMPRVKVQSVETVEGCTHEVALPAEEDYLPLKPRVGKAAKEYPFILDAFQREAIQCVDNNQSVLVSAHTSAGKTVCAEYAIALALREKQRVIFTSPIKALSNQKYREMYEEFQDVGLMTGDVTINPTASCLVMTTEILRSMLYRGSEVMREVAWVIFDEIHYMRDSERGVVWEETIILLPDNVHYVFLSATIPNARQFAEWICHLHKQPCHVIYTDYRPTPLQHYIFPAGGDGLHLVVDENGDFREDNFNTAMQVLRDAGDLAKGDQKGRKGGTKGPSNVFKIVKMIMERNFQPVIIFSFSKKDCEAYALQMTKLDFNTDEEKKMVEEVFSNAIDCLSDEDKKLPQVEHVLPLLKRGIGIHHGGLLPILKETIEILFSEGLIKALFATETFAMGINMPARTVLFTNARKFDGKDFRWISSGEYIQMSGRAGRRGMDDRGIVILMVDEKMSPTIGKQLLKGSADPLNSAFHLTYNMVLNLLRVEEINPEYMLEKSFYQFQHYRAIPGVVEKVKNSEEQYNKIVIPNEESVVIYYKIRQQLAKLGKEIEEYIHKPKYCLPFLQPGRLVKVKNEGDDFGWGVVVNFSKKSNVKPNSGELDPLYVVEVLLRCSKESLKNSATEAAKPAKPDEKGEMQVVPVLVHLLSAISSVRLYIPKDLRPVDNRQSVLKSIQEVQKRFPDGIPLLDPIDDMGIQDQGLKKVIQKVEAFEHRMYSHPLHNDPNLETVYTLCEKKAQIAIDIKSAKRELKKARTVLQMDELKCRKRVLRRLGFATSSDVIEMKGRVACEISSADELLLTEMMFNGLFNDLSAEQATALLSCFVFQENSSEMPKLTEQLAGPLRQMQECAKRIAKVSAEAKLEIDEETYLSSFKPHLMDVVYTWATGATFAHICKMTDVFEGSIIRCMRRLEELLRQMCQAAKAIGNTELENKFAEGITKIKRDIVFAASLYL

In the case of `O=C(Nc1ccc(OC(F)(F)F)cc1)c1sccc1NCc1ccnc2ccccc12` [OSI-930], the Kd (in assay [1]; on Actin-related protein 2; on Ephrin type-B receptor 6; on LIM domain kinase 2; in assay [2]; in assay [3]) was > 30 µM (inactive) each time. In assay [4], the Kd is > 30 µM (inactive).
With `COc1ccc(-c2ccc3ncc4c(c3c2)n(-c2ccc(N3CCNCC3)c(C(F)(F)F)c2)c(=O)n4C)cn1` [BGT-226 FREE BASE], the Kd (in assay [1]; on Actin-related protein 2; at Ephrin type-B receptor 6; on LIM domain kinase 2; in assay [2]; in assay [3]) was > 30 µM (inactive) in each case. Further, in assay [4], the Kd is > 30 µM (inactive).
`Cc1cc(C(=O)Nc2cc(Oc3ccc4nc(NC(=O)C5CC5)cn4n3)ccc2C)n(C)n1` [TAK-593]: the Kd in assay [1] was 4.06 µM (active); on Actin-related protein 2, > 30 µM (inactive); at Ephrin type-B receptor 6 it was > 30 µM (inactive); on LIM domain kinase 2 it was > 30 µM (inactive); in assay [2] it was > 30 µM (inactive); in assay [3], > 30 µM (inactive). The Kd in assay [4] was > 30 µM (inactive).
With `O=C(O)c1ccc2c(c1)nc(Nc1cccc(Cl)c1)c1ccncc12` [SILMITASERTIB], the Kd (in assay [1]; at Actin-related protein 2; on Ephrin type-B receptor 6; on LIM domain kinase 2; in assay [2]; in assay [3]) was > 30 µM (inactive) each time. Moreover, the Kd in assay [4] was > 30 µM (inactive).
With `CCN(CCCOc1ccc2c(Nc3cc(CC(=O)Nc4cccc(F)c4)n[nH]3)ncnc2c1)CCOP(=O)(O)O` [BARASERTIB], the Kd was > 30 µM (inactive) in assay [1]; > 30 µM (inactive) at Actin-related protein 2; > 30 µM (inactive) at Ephrin type-B receptor 6; > 30 µM (inactive) on LIM domain kinase 2; > 30 µM (inactive) in assay [2]; 0.082 µM (active) in assay [3]. The Kd in assay [4] is > 30 µM (inactive).
Turning to `N#CCNC(=O)c1ccc(-c2ccnc(Nc3ccc(N4CCOCC4)cc3)n2)cc1` [MOMELOTINIB], the Kd (in assay [1]; on Actin-related protein 2; at Ephrin type-B receptor 6; at LIM domain kinase 2; in assay [2]; in assay [3]) was > 30 µM (inactive) in each case. The Kd in assay [4] is > 30 µM (inactive).
Take `c1cc(OCCN2CCCCC2)cc(-c2n[nH]c3ccc(-c4nc[nH]n4)cc23)c1` [CC-401]: the Kd (in assay [1]; at Actin-related protein 2; on Ephrin type-B receptor 6; at LIM domain kinase 2; in assay [2]; in assay [3]) was > 30 µM (inactive) each time. In addition, the Kd in assay [4] was > 30 µM (inactive).
In the case of `O=S(=O)(c1cccc2c(O)nccc12)N1CCCNCC1` [HYDROXYFASUDIL], the Kd (in assay [1]; at Actin-related protein 2; at Ephrin type-B receptor 6; on LIM domain kinase 2; in assay [2]; in assay [3]) was > 30 µM (inactive) each time. The Kd in assay [4] is > 30 µM (inactive).
Consider `CCN1CCN(Cc2ccc(Nc3ncc(F)c(-c4cc(F)c5nc(C)n(C(C)C)c5c4)n3)nc2)CC1` [ABEMACICLIB], for which the Kd (in assay [1]; at Actin-related protein 2; at Ephrin type-B receptor 6; at LIM domain kinase 2; in assay [2]; in assay [3]) was > 30 µM (inactive) in each case. The Kd in assay [4] was > 30 µM (inactive).
As for `C=CC(=O)Nc1cccc(Nc2nc(Nc3ccc(N4CCN(C(C)=O)CC4)cc3OC)ncc2C(F)(F)F)c1` [ROCILETINIB], the Kd (in assay [1]; at Actin-related protein 2; on Ephrin type-B receptor 6; at LIM domain kinase 2; in assay [2]; in assay [3]) was > 30 µM (inactive) throughout. Besides, in assay [4], the Kd is > 30 µM (inactive).
On to `O=c1[nH]c([C@@H]2CCCN2)nc2c1oc1ccc(Cl)cc12`, for which the Kd (in assay [1]; at Actin-related protein 2; on Ephrin type-B receptor 6; on LIM domain kinase 2; in assay [2]; in assay [3]) was > 30 µM (inactive) in each case. Moreover, the Kd in assay [4] was > 30 µM (inactive).
For the molecule `Cc1c(Cn2c(C)nc3c(C(=O)O)cc(N4CCOCC4)cc32)cccc1C(F)(F)F` [GSK-2636771], the Kd (in assay [1]; on Actin-related protein 2; on Ephrin type-B receptor 6; at LIM domain kinase 2; in assay [2]; in assay [3]) was > 30 µM (inactive) in each case. Further, in assay [4], the Kd is > 30 µM (inactive).
On to `COc1cc2ncnc(Nc3ccc(O)cc3)c2cc1OC` [WHI-P131], for which the Kd (in assay [1]; on Actin-related protein 2; on Ephrin type-B receptor 6; at LIM domain kinase 2; in assay [2]; in assay [3]) was > 30 µM (inactive) throughout. Further, in assay [4], the Kd is > 30 µM (inactive).
